Assay results as given in patent publication US20190192699A1, “NUCLEAR IMAGING AND RADIOTHERAPEUTICS AGENTS TARGETING CARBONIC ANHYDRASE IX AND USES THEREOF” (THE JOHNS HOPKINS UNIVERSITY, priority 2016, published 2019).

Experiments:
[1] = molecular target: T1, CAIX (Homo sapiens, UniProt Q16790); experiment: Competitive fluorescence polarization assay for [113/115In]XYIMSR-01; format: binding; design: purchased R&D Systems
Description: (§1) General Procedures. Solvents and chemicals obtained from commercial sources were of analytical grade or better and used without further purification. Fmoc-protected azidolysine, HBTU, and N-α-fmoc-L-aspartic acid α-tert-butyl ester were purchased from Chem Impex International, Inc. (Wooddale, Ill.). Carrier-free [^111In]InCl3 was purchased from MDS Nordion (Ottawa, ON, Canada). DOTA-NHS-ester (1,4,7,10-tetraazacyclododecane-1,4,7,10-tetraacetic acid mono N-hydroxysuccinimide ester) was purchased from Macrocyclics, Inc. (Dallas, Tex.). Indium (III) nitrate, triethylsilane (Et3SiH), N,N-diisopropylethylamine (DIEA), triethylamine (TEA), piperidine, 4,4-bis(4-hydroxyphenyl)valeric acid, copper iodide (CuI), and tris[(1-benzyl-1H-1,2,3-triazol-4-yl)methyl]amine (TBTA) were purchased from Sigma-Aldrich (Saint Louis, Mo.). Pre-loaded O-bis-(aminoethyl)ethylene glycol on trityl resin was purchased from EMD Millipore (Billerica, Mass.). Flash chromatography was performed using MP SiliTech 32-63 D 60 Å silica gel purchased from Bodman (Aston, Pa.). Recombinant human CAIX was purchased from R&D Systems (Minneapolis, Minn.). 1H NMR spectra were recorded on a Bruker Ultrashield 500 MHz spectrometer. Chemical shifts (δ) were reported in ppm downfield by reference to proton resonances resulting from incomplete deuteration of the NMR solvent. ESI mass spectra were obtained on a Bruker Daltonics Esquire 3000 Plus spectrometer (Billerica, Mass.).
Competitive Fluorescence Polarization Assay for [^113/115In]XYIMSR-01. Fluorescence polarization (FP) experiments were performed in 21 μL of the assay buffer (12.5 mM Tris-HCl, pH 7.5, 75 mM NaCl) in black flat bottom 384-well microplates (Corning, Inc., New York, N.Y.) The FP reaction employed 100 nM of purified CAIX (R&D systems, Minneapolis, Minn.) and 80 nM FITC-labeled 8 (Wichert, et al., 2015) within the assay buffer. The FP values were measured as mP units using the Victor3 multi-label plate reader equipped with excitation (485 nm) and emission (535 nm) filters (Perkin Elmer, Waltham, Mass.). 100 nM CAIX was incubated with serially diluted (from 1 μM to 61 fM) concentrations of the three targeting molecules, 2, XYIMSR-01, and [^113/115In]XYIMSR-01 for 30 min at room temperature in 384-well plates. 80 nM 8 was added to each well and the reaction was incubated for 30 min at room temperature followed by FP measurement. Experiments were carried out in triplicate and the concentration resulting in 50% response (IC50) was calculated in GraphPad Prism 5 (GraphPad Software, La Jolla, Calif.) using the sigmoidal dose-response regression function.

[2] = molecular target: T1, CAIX; experiment: Competitive fluorescence polarization assay for [Al19F]XYIMSR-04, [63/65Cu]XYIMSR-06 and [175Lu]XYIMSR-01; format: binding; design: purchased R&D Systems; conditions: 100 nM CAIX, 80 nM FITC-labeled ligand; read-out: IC50, competitive fluorescence polarization (similar method)
Description: as §1
Competitive Fluorescence Polarization Assay for [Al^19F]XYIMSR-04, [^63/65Cu]XYIMSR-06, and [^175Lu]XYIMSR-01. Fluorescence polarization (FP) experiments were performed in 21 μL of the assay buffer (12.5 mM Tris-HCl, pH 7.5, 75 mM NaCl) in transparent flat bottom 384 well Small Volume™ LoBase Microplates (Greiner Bio-One, Frickenhausen Germany). The FP reaction employed 100 nM of purified CAIX (R&D systems, Minneapolis, Minn.) and 80 nM FITC-labeled ligand within the assay buffer. The FP values were measured as mP units using the Safire2™ plate reader (Tecan, Morrisville, N.C.) with excitation at 475 nm and emission at 532 nm emission. 100 nM CAIX was incubated with serially diluted (from 8 μM to 488.2 fM) concentrations of the […] targeting molecules, 2, [Al^19F]XYIMSR-04, [^63/65Cu]XYIMSR-06 and [^175Lu]XYIMSR-01 for 30 min at room temperature in 384 well plates. 80 nM FITC-labeled ligand was added to each well and the reaction was incubated for 30 min at room temperature followed by FP measurements. Experiments were carried out in triplicate and the concentration resulting in 50% response (IC50) was calculated in GraphPad Prism 5 (GraphPad Software, La Jolla, Calif.) using the sigmoidal dose-response regression function.

[3] = molecular target: T1, CAIX; design: host or cells: ccRCC tumours in patients; conditions: Wichert et al., 2015; read-out: Kd for CAIX (known / reported); cited from earlier work

- IC50 ([1]; 100 nM CAIX, 80 nM FITC-labeled 8, read-out: IC50, inhibition of fluorescence polarization of FITC labeled 8): 75.9 nM
- binding affinity to CAIX (in words) ([1]; competitive fluorescence polarization): high binding affinity
- IC50 [2]: 63.6 ± 2.8 nM
SMILES: CC(CCC(=O)N[C@@H](CC(=O)N[C@@H](CC(=O)N[C@@H](CCCCn1cc(CCCC(=O)Nc2nnc(S(N)(=O)=O)s2)nn1)C(=O)NCCOCCOCCN)C(=O)O)C(=O)O)(c1ccc(O)cc1)c1ccc(O)cc1 [compound 3, N^4-((S)-1-((2-(2-(2-aminoethoxy)ethoxy)ethyl)amino)-1-oxo-6-(4-(4-oxo-4((5-sulfamoyl-1,3,4-thiadiazol-2-yl)amino)butyl)-1H-1,2,3-triazol-1-yl)hexan-2-yl)-N^2-((S)-3-(4,4-bis(4-hydroxyphenyl)pentanamido)-3-carboxypropanoyl)-L-asparagine, reference compound]
- Kd [3]: 2.6 nM
